In publication PMC12040169 (PLOS Biology, 2025):

tested on: T1, CTL2-GFP (C. trachomatis L2/434/Bu, GFP-expressing); assay: microbe, parasite or virus in culture; set-up: Intracellular C. trachomatis growth in HeLa cells, bulk GFP fluorescence relative to DMSO; conditions: Chlamydia trachomatis, HeLa, 28.5 h; bulk GFP, mean of 2; read-out: % of control remaining
T1 construct: L2/434/Bu, GFP-expressing
Description: MICs were calculated as described above.

Row | SMILES | activity at 1 µM | activity at 5 µM | activity at 10 µM
1 | CC(C)(CN)CN(Cc1ccccc1Br)C(=O)NC(c1ccccc1)c1ccccc1 [CBK002488C] | 150% | 114% | 85.7%
2 | CN(C(=O)c1ccc(Cl)c(Cl)c1)[C@H]1CCC[C@H]1N1CCCC1 [CBK003411C] | 32.2% | 0.223% | 1.01%
3 | FC(F)(F)c1ccc(N2CCNCC2)nc1OCc1ccc2c(c1)OCCO2 [CBK003994A] | 106% | 40.3% | 22.5%
4 | CCOc1ccc2nc(NC(=N)N)nc(C)c2c1 [CBK010384C] | 121% | 24.6% | 4.24%
5 | CC(=O)NC[C@H]1CN(c2ccc(C#N)c(C)c2)C(=O)O1 [CBK010393] | 120% | 98% | 55.2%
6 | O=C(O)c1cn(C2CC2)c2cc(N3CCNCC3)c(F)cc2c1=O [CBK011645] | 12.8% | 1.31% | 0%
7 | c1c(C2CC2)[nH]c2nc(N3CCCC3)nc(N3CCCC3)c12 [CBK016707G] | 3.94% | 11.1% | 20.9%

tested on: not listed separately; assay: in vitro; set-up: Viability of infected HeLa host cells, resazurin conversion, bulk resorufin fluorescence relative to DMSO; conditions: human, hela cells; bulk resorufin, mean of 2

Row | SMILES | viability at 28.5 h, 1 µM | viability at 28.5 h, 5 µM | viability at 28.5 h, 10 µM
8 | CC(C)(CN)CN(Cc1ccccc1Br)C(=O)NC(c1ccccc1)c1ccccc1 [CBK002488C] | 92.2% | 93.1% | 90%
9 | CN(C(=O)c1ccc(Cl)c(Cl)c1)[C@H]1CCC[C@H]1N1CCCC1 [CBK003411C] | 112% | 111% | 118%
10 | FC(F)(F)c1ccc(N2CCNCC2)nc1OCc1ccc2c(c1)OCCO2 [CBK003994A] | 100% | 103% | 96.6%
11 | CCOc1ccc2nc(NC(=N)N)nc(C)c2c1 [CBK010384C] | 90.4% | 102% | 94.8%
12 | CC(=O)NC[C@H]1CN(c2ccc(C#N)c(C)c2)C(=O)O1 [CBK010393] | 89.7% | 90.3% | 89.8%
13 | c1c(C2CC2)[nH]c2nc(N3CCCC3)nc(N3CCCC3)c12 [CBK016707G] | 99.1% | 96.9% | 86.9%

tested on: T2, C. trachomatis L2/434/Bu expressing GFP (CTL2-GFP); assay: microbe, parasite or virus in culture; set-up: C. trachomatis total inclusion area by high-content imaging, normalised to DMSO; conditions: Chlamydia trachomatis, HeLa, 28.5 h; total inclusion area; read-out: % of control remaining
T2 construct: L2/434/Bu GFP intracellular growth in HeLa cells
Description: We screened a library of 36,785 small molecules displaying drug-like properties and covering a wide chemical space (Fig 1A and S2A Data). In this process, we also complemented the assay described above with an imaging-based readout (Fig 1B). After measurements of bulk GFP and resorufin fluorescence, cells were fixed, stained with the DNA dye Hoechst, and imaged at a high-content imaging platform to detect chlamydial inclusions (GFP) and host cell nuclei (Hoechst). The total area and number of inclusions in individual wells and the number of nuclei then served as additional proxies for chlamydial growth and host cell viability. […] MICs were calculated as described above.

Row | SMILES | activity at 1 µM | activity at 5 µM | activity at 10 µM
14 | CC(C)(CN)CN(Cc1ccccc1Br)C(=O)NC(c1ccccc1)c1ccccc1 [CBK002488C] | 112% | 116% | 38.2%
15 | CN(C(=O)c1ccc(Cl)c(Cl)c1)[C@H]1CCC[C@H]1N1CCCC1 [CBK003411C] | 52.8% | 1.24% | 0.29%
16 | FC(F)(F)c1ccc(N2CCNCC2)nc1OCc1ccc2c(c1)OCCO2 [CBK003994A] | 82.5% | 8.88% | 7.41%
17 | CCOc1ccc2nc(NC(=N)N)nc(C)c2c1 [CBK010384C] | 87% | 20.7% | 1.75%
18 | CC(=O)NC[C@H]1CN(c2ccc(C#N)c(C)c2)C(=O)O1 [CBK010393] | 102% | 94.2% | 42.5%
19 | O=C(O)c1cn(C2CC2)c2cc(N3CCNCC3)c(F)cc2c1=O [CBK011645] | 11.1% | 0.824% | 0.167%
20 | c1c(C2CC2)[nH]c2nc(N3CCCC3)nc(N3CCCC3)c12 [CBK016707G] | 0.765% | 0.748% | 3.52%

tested on: not listed separately; assay: in vitro; conditions: human, hela cells, % viability

Row | SMILES | viability at 28.5 h, 10 µM
21 | COc1ccc(CNC(=O)c2cc(S(=O)(=O)N(C)C)ccc2OC)cc1 [CBK307586] | 85.1%
22 | CCN(CCn1cccn1)c1nc2nonc2nc1NC1CCCC1 [CBK307589] | 106%
23 | Cn1c(=O)oc2ccc(C(=O)NCCN3CCCCC3CO)cc21 (stereo not drawn) [CBK307594] | 78%
24 | Cc1cc(=O)n2c3c(cc(S(=O)(=O)NCC4CCCO4)cc13)CC2 (stereo not drawn) [CBK307595] | 103%
25 | O=C(NCCCn1ccnc1)C1CCN(C(=O)c2cccc(Cl)c2)CC1 [CBK307596] | 116%
26 | CN(Cc1nnc(-c2ccc(C(C)(C)C)cc2)o1)C(=O)C1CCCO1 (stereo not drawn) [CBK307597] | 106%
27 | O=C(O)C1(Oc2ccc3ncccc3c2)CCN(Cc2ccoc2)CC1 [CBK307598] | 90.9%
28 | CN1CCOCC(CNC(=O)c2ccc(-c3ccccc3CO)cc2)C1 (stereo not drawn) [CBK307601] | 91.1%
29 | OC(Cc1ccccc1)c1cc2n(n1)CCN(Cc1ccsc1)C2 (stereo not drawn) [CBK307603] | 89.5%
30 | CCOC(=O)c1cnc2ccc(Cl)cc2c1NC [CBK307605] | 71.1%
31 | CC(C(=O)Nc1ccc(S(N)(=O)=O)cc1)N1Cc2ccccc2C1=O (stereo not drawn) [CBK307607] | 82.8%
32 | COc1ccc2c(c1)CCN(C(=O)C1CCc3nn(C)c(=O)n3C1)C2 (stereo not drawn) [CBK307613] | 93.3%
33 | COCCNC(=O)c1cc2n(n1)C(C(F)(F)F)CC(c1cccs1)N2 (stereo not drawn) [CBK307614] | 113%
34 | COc1ccccc1CCNC(=O)N1CCC(Oc2cccnc2)CC1 [CBK307615] | 106%
35 | Cc1cc(C)n(-c2ccc3nnc(CCC(=O)Nc4nccs4)n3n2)n1 [CBK307617] | 96.8%
36 | Cc1nc(O)cc(C2CCN(C(=O)c3csc4c3CCCC4)CC2)n1 [CBK307618] | 104%
37 | Cc1ccc2c(c1)OC(C)(C)CC2NS(C)(=O)=O (stereo not drawn) [CBK307620] | 81.5%
38 | Cc1ccc2c(c1)OC(C)(C)CC2NC(=O)C1CCN(C)CC1 (stereo not drawn) [CBK307626] | 110%
39 | CCn1cc(C(=O)Nc2nccs2)c(=O)c2ccc(C)nc21 [CBK307628] | 78.3%
40 | O=C(NC1CC1)c1cnc2ccc(F)cc2c1O [CBK307629] | 82.4%

Row | SMILES | viability at 28.5 h, 10 µM
41 | Cc1cc(C)n(C2CN(C(=O)NCCCOc3cccnc3)C2)n1 [CBK307632] | 84.1%
42 | CCn1c(=O)oc2cc(NC(=O)NCCCc3csc(N)n3)ccc21 [CBK307633] | 79.7%
43 | Cc1cc(C)n2nc(C(=O)NCCCn3ccnc3C(C)C)nc2n1 [CBK307635] | 94%
44 | CCOc1ccc(NC(=O)N(Cc2cnn(C)c2)CC(C)C)cc1C#N [CBK307636] | 93%
45 | CCCn1ncc(C(=O)NC(CC)c2cn3cccnc3n2)c1C (stereo not drawn) [CBK307640] | 92.9%
46 | COCCN(Cc1cnn(C)c1)C(=O)NCc1nc2c(C)cccc2o1 [CBK307642] | 86.8%
47 | CN(Cc1nc(-c2ccccc2)no1)C(=O)COCC1CCCCO1 (stereo not drawn) [CBK307643] | 106%
48 | CCOc1ccc(-c2ccnc(N3CCOC(CN)C3)n2)cc1C(=O)O (stereo not drawn) [CBK307644] | 84%
49 | Cn1c(O)c(CCNc2cc(C3CCOC3)ncn2)cnc1=O (stereo not drawn) [CBK307648] | 90.7%
50 | CCOc1ccc(-c2ccnc(N3CCCC(C)(O)C3)n2)cc1C(=O)O (stereo not drawn) [CBK307652] | 117%
51 | Cc1ccc2c(c1)C(NC(=O)N(C)C1CCS(=O)(=O)CC1)CC(C)(C)O2 (stereo not drawn) [CBK307654] | 108%
52 | CC(C)CCN(C)C(=O)c1cccc(S(=O)(=O)NCc2ccsc2)c1 [CBK307656] | 110%
53 | CN(Cc1nccs1)C(=O)NC1CCN(Cc2cccc(O)c2)CC1 [CBK307657] | 96.7%
54 | Cc1nn(C)c(C)c1-c1ccnc(NCCC2(O)CCN(C)CC2)n1 [CBK307659] | 86.1%
55 | CC(=O)Nc1ccc(CNC(=O)CN(C)Cc2cccc(O)c2)cc1 [CBK307660] | 84.8%
56 | COc1cc(Cn2ncc(N3CCCCC3)cc2=O)cc(OC)c1 [CBK307662] | 97.1%
57 | COc1cccn(CC(=O)N2CCc3sc(C(=O)N(C)C)cc3C2)c1=O [CBK307665] | 90.5%
58 | CC(C)c1nc(CCN(C)C(=O)NCc2cnc3cnccn23)no1 [CBK307666] | 108%
59 | Cc1nn(CC(=O)N(C)C(C)c2ccncn2)c(=O)c2ccccc12 (stereo not drawn) [CBK307669] | 89%
60 | CCc1nnsc1C(=O)Nc1nn(C)c2cccc(N3CCOCC3)c12 [CBK307671] | 84.4%

Row | SMILES | viability at 28.5 h, 10 µM
61 | COc1ccccc1CN(Cc1cccnc1)C(=O)NC(C)C(C)C (stereo not drawn) [CBK307672] | 85.2%
62 | Cc1nc(CCNC(=O)N(Cc2ccsc2)C2CC2)nc2c1CCCC2 [CBK307674] | 88.5%
63 | COc1cccc2ncn(CCc3csc(N)n3)c(=O)c12 [CBK307679] | 81.9%
64 | COCCN1CC(CNC(=O)c2ccc(N3CCCC3)c(Cl)c2)CC1=O (stereo not drawn) [CBK307680] | 84%
65 | CN1CCC(OCCCn2ccnc2-c2nccn2C)CC1 [CBK307683] | 96.2%
66 | CCC(C(=O)Nc1nccs1)N(C)Cc1n[nH]c2c1CCC2 (stereo not drawn) [CBK307685] | 99%
67 | CC1(C)Cc2nc(N3CCOCC3)ncc2C(NC(=O)C2CCCC2)C1 (stereo not drawn) [CBK307687] | 115%
68 | CCCc1ccc(-c2nccn2CCn2cc(C)nn2)o1 [CBK307688] | 101%
69 | Cn1ncc(N2CCC(CNC(=O)Cc3ccc(O)c(Cl)c3)C2)cc1=O (stereo not drawn) [CBK307689] | 113%
70 | Cc1nc(C2CC(O)C2)cc(N(C)CCOc2cccc(Cl)c2)n1 (stereo not drawn) [CBK307691] | 94.6%
71 | CCOc1ccc(-c2ccnc(NCC3CCCOC3)n2)cc1C(=O)O (stereo not drawn) [CBK307694] | 88.2%
72 | Cc1ccc(C)c(OCCN(C)c2cc(C3CC(N)C3)nc(N)n2)c1 (stereo not drawn) [CBK307695] | 45.4%
73 | CCOc1ccc(-c2ccnc(N3CCN(CC)CC3)n2)cc1C(=O)O [CBK307697] | 80.6%
74 | CCC(O)CNC(=O)c1coc(COc2ccc3sc(C)nc3c2)n1 (stereo not drawn) [CBK307700] | 90.8%
75 | Cn1ncc2c(NCC(=O)N3CCNCC3)nc(C(C)(C)C)nc21 [CBK307702] | 120%
76 | CCCOC1CCCN(c2nccc(-c3cc(C(=O)O)ccn3)n2)C1 (stereo not drawn) [CBK307703] | 101%
77 | COCCNc1nc2c(c(N3CCC(C#N)CC3)n1)CCNCC2 [CBK307706] | 86.6%
78 | Cc1ccc2nc(N3CCCC(O)C3)c(CN3CCN(C)CC3)cc2c1 (stereo not drawn) [CBK307710] | 100%
79 | CCN(CCc1nc2cc(OC)ccc2[nH]1)C(=O)c1ccc(=O)n(C)n1 [CBK307712] | 108%
80 | COc1ccccc1CN(Cc1cccnc1)C(=O)CCC(F)(F)F [CBK307713] | 92.3%
